Test results published in US12029738B2, “Antiproliferative compounds and methods of use thereof” (Celgene Corporation, priority 2017, dated 2024).
Where two headings read alike, the source gives them in different places.

Legend:
[1] = tested on: OPM2; assay: PBMC and MM cell treatment assay (single culture vs co-culture); type: cell-based; conditions: Homo sapiens, OPM-2, OPM2, read-out: Immune-mediated Cell Killing IC50
Description: PBMC and MM Cell Treatment Assay Procedure. Ninety-six-well dishes were pre-coated with anti-CD3 antibody (OKT3, 3 μg/mL) and incubated at 4° C. overnight before the start of the experiment. Frozen PBMC donor cells were thawed at 37° C. for 2 minutes in RPMI medium with 10% FBS and cell counts and viability were measured on the Vi-CELL analyzer. Peripheral blood mononuclear cells were washed and diluted to 1×10^6 cells/mL and dispensed into the compound-treated plates in a total volume of 200 μL. Cells were incubated with compounds for 2 h before being transferred onto anti-CD3-coated plates and incubated for an additional 72 h. At the same time, MM cell lines (NCI-H929, H929-1051, OPM2, OPM2-P10) were diluted to a final concentration of 0.1×10^6 cells/mL and labeled with CellTrace CFSE according to manufacturer's instructions. Multiple myeloma cell lines were then dispensed into compound-treated plates at a total volume of 200 μL and incubated for 72 h. After 72 h, the PBMCs and MM cells were counted and transferred into a U-bottom 96-well plate at a final T:E ratio of 1:5. After 24 h coculture, specific target cell lysis by PBMC cells was measured using Annexin V-AF647 and 7-AAD according to manufacturer's instructions and samples were run on the Attune NxT Cytometer.
Because preincubation of immune cells with Compound 2 enhanced the targeting and lysing of MM cells, the effect of preincubation of MM cells with Compound 2 on their susceptibility to immune-mediated killing was also explored (FIG. 16A, FIG. 16B, FIG. 16C, and FIG. 16D, Table 12). Four MM cell lines and anti-CD3 antibody-activated PBMCs were separately preincubated with Compound 2, lenalidomide, or pomalidomide for 72 h. When anti-CD3 antibody-activated PBMCs and MM lines were both pretreated with Compound 2, lenalidomide, or pomalidomide, followed by co-culture, the effects on the PBMC-induced MM cell lysis were enhanced both in the potency and magnitude of the killing response. […] For the pomalidomide-resistant OPM2-P10 cell line, Compound 2 treatment of the MM cells enhanced the immune-mediated killing by ˜3000-fold (Table 12).

[2] = tested on: CD38 expression in MM cell lines; assay: Cell surface CD38 expression in MM cells (72 h pretreatment); type: cell-based, human; conditions: 72 h treatment
Description: FIG. 17. Compound 2 upregulates CD38 expression in MM cell lines. The cell surface expression of CD38 was evaluated in MM cells pretreated with Compound 2 or pomalidomide for 72 h. The dose response effects are shown for OPM-2 and OPM-2.P10 cell lines.
The extent of CD38 expression was greater with Compound 2 and occurred at lower concentrations compared to pomalidomide. MM cells+/−Compound 2 or pomalidomide pretreatment were evaluated in ADCC assays with daratumumab. […] Compound 2 treated cells were also more sensitive to daratumumab-mediated ADCC compared to pomalidomide treated cells. The ability of Compound 2 and pomalidomide to modulate daratumumab-mediated ADCP was also tested.

[3] = tested on: RPMI-8226; assay: PBMC and MM cell treatment assay (single culture vs co-culture); type: cell-based; conditions: Homo sapiens, RPMI-8226, RPMI-8226, read-out: Immune-mediated Cell Killing IC50
[4] = tested on: MM cell lines; assay: Daratumumab-mediated ADCP assay; type: cell-based, human; conditions: for daratumumab-mediated ADCP: ARH-77 cell line
Description: ADCP assay: The effect of Compound 2 or pomalidomide on daratumumab-mediated ADCP was determined in a panel of MM cell lines. Monocytes were plated in a 96 well plate at 40,000 cells per well in 100 μL volume of complete AIM-V media containing 50 ng/mL of M-CSF. The cells were allowed to settle onto the plate for 15 minutes at room temperature before placing into 37° C., 5% C02 incubator for 9 days to allow for differentiation into macrophages. The culture media was replenished with fresh complete media every 3-4 days. On the morning of the ADCP assay, the macrophages were serum starved for 2-4 hours at 37° C., 5% C02 before co-culturing with the MM cells. The MM cells were pretreated with sub-lethal concentrations of Compound 2 or pomalidomide for 72 h. On the day of the assay, the MM cells were washed with PBS and labeled with CSFE for 15 minutes. The reaction was stopped with an equal volume of 20% FBS. The cells were washed twice with PBS and resuspended in AIM-V media at 1.6×10^6 cells/mL. Then 50 μL of MM cells was mixed with 50 μL of 2 μg/mL daratumumab for 10 minutes at room temperature before adding to the serum starved macrophages. Each condition was assayed in triplicate. The final volume of the assay was 200 μL containing 10% human serum with an effector to target ratio of […]. The plate was spun at 500 rpm for 1 minute followed by incubation at 37° C., 5% CO2 for 3 h. At the end of the incubation, the plate was washed with 100 μL of PBS and the remaining cells were stained with anti-CD14 and anti-CD138 to identify the macrophages and MM cells, respectively. The plate was washed and the wells were filled with 100 μL of PBS. The macrophages were detached from the bottom of the wells with the addition of 50 μL of 0.25% trypsin. The samples were neutralized with the addition of 50 μL of complete AIM-V media. The samples were analyzed on flow cytometer. The percent phagocytosis was determined by the CSFE/CD14 double positive cells divided by the total number of CD14+ cells times 100.

SMILES | IC50 ([1]; Co-culture with PBMCs) | IC50 ([1]; Single culture) | CD38 expression in MM cells [2] | IC50 ([3]; Co-culture with PBMCs) | IC50 ([3]; Single culture) | daratumumab-mediated ADCP of pretreated MM cells ([4]; 72 h pretreatment, macrophages E:T 2:1) | daratumumab-mediated ADCP [4]
N#Cc1ccc(N2CCN(Cc3ccc(COc4cccc5c4CN([C@H]4CCC(=O)NC4=O)C5=O)cc3)CC2)c(F)c1 [Compound 2, (S)-4-(4-(4-(((2-(2,6-dioxopiperidin-3-yl)-1-oxoisoindolin-4-yl)oxy)methyl)benzyl)piperazin-1-yl)-3-fluorobenzonitrile] | 0.0936 nM | 0.3 nM | dose-dependent increase of CD38 expression | 0.0839 nM | 13.4 nM | more sensitive to daratumumab-mediated ADCP compared to untreated and pomalidomide treated cells | no enhanced ADCP
Nc1cccc2c1C(=O)N(C1CCC(=O)NC1=O)C2=O (stereo not shown) [Pomalidomide, pomalidomide] | 168 nM | 627 nM | dose-dependent increase of CD38 expression | 67.6 nM | > 10000 nM | – | no enhanced ADCP
